Measurements from patent US10980725B2, “Cosmetic compositions and method of treating the skin” (Johnson & Johnson Consumer Inc., priority 2017, dated 2021).
Like-named read-outs stand apart in the source and are kept apart here.

Legend:
[1] = system: interleukin 8 (IL-8 mRNA); experiment: Gene expression of inflammatory mediator interleukin 8 in skin explant; format: cell-based, human; settings: 48 h; for IL-8 mRNA expression in skin explant: topical; for IL-8 mRNA expression as compared to Neutrogena RWR (in words): skin explant
Protocol: (§1) Human skin explants were prepared as described by Bellemère et al. (Journal of Investigative Dermatology (2008) 128, 542-548), treated with 4 μl of compound (1) or (2) (Cpd (1) and Cpd (2) in the figure) at 2 concentrations: 10 μM and 100 μM and incubated at 37° C., 5% CO2 in 6-well plates containing 1.5 ml of medium during 48 h. After 48 h, the epidermis of each explant is detached from the dermis and (i) lysed for RNA extraction with Qiagen Rneasy kit, (ii) reverse transcripted using the thermocycler iCycler from Biorad and Applied Biosystems kit and (iii) analyzed for gene expression by performing a qPCR using the CFX96 Biorad Q-PCR system and Power Sybergreen PCR master mix from Applied Biosystems. All steps were performed according to the manufacturer's instructions. […] Compounds (1) and (2), used at doses of 10 μM and 100 μM, elicit retinol-like bioactivity, as shown by the induction of CRABP2 and HB-EGF gene expression.
Test Method 4 Gene Expression of Inflammatory Mediator Interleukin 8 (IL-8 mRNA)
The skin explant used in Test Method 3 was used to measure the expression of the gen for IL-8 mRNA.
As depicted in the Figure below, IL-8 mRNA expression is lower in explant treated with both compounds (1) and (2) as compared to Neutrogena RWR.

RARγ receptors = molecular target: T1, RARγ receptors (Homo sapiens, UniProt P13631); experiment: GenBLAzer RAR gamma cell-based assay, agonist mode (AG) and positive allosteric modulator mode (PAM); settings: unit from horizontal axis of FIG. 1
T1 sequence (P13631 185-419 limits assumed): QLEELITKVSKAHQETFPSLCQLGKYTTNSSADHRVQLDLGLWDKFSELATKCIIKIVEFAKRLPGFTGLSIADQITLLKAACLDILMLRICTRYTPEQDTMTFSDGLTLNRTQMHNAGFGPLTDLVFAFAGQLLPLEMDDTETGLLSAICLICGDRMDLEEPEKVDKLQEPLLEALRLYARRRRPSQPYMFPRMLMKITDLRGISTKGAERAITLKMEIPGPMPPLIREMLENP
Protocol: Test Method 2 RARγ Receptors in Both Agonist Mode (AG) and Positive Allosteric Modulator Mode (PAM)
Dose response activity on RARγ receptors in both agonist mode (AG) and Positive allosteric modulator mode (PAM) was tested using Invitrogen's GenBLAzer® RAR gamma cell-based assay according to the manufacturer's instructions.

[2] = system: HBEGF (heparin-binding epidermal growth factor-like growth factor) gene expression; experiment: HBEGF gene expression in human skin explants (qPCR); format: cell-based; settings: 48 h; for HB-EGF gene expression in skin explant: topical; for HBEGF gene expression in human skin explants (in words): applied topically, 10 μM and 100 μM
Protocol: (§2) Test Method 3 CRABP2 (Cellular Retinoic Acid Binding Protein-II) and HBEGF (Heparin-Binding Epidermal Growth Factor-Like Growth Factor) Gene Expression in Human Explants
as §1

[3] = molecular target: T2, Human Retinoic Acid Receptor Gamma (Homo sapiens, UniProt P13631); experiment: RARγ transactivation cellular assay (luciferase reporter, Indigo Biosciences #IB02001); format: cell-based; settings: for RARγ transactivation (in words): 0.1 μM, 1 μM and 10 μM; for RARγ receptor transactivation values (ratio: RLU of tested material/RLU of control): 24 h incubation
T2 sequence (P13631 1-454): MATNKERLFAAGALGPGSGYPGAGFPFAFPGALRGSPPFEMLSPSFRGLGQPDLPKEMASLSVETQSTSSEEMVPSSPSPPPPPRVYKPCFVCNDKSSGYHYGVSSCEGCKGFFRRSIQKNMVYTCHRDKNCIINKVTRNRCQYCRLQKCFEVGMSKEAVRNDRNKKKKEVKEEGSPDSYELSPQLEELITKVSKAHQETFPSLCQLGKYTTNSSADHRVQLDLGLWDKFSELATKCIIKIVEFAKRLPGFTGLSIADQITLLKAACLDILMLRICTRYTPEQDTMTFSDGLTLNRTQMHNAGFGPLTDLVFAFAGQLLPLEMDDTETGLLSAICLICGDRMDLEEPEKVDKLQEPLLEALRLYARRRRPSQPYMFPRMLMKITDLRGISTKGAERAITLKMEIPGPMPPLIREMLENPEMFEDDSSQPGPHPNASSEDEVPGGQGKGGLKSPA
Protocol: Test Method 1 RARγ Transactivation Cellular Assay
This assay system uses non-human cells engineered to provide constitutive, high-level expression of the Human Retinoic Acid Receptor Gamma, a ligand-dependent transcription factor. Cells include the luciferase reporter gene functionally linked to a RARγ-responsive promoter. Thus, quantifying changes in luciferase expression in the treated reporter cells provides a sensitive measure of the changes in RARγ activity.
Engineered cells are seeded in 96-well plates and treated with the assessed compounds at 3 concentrations: 0.1 μM, 1 μM and 10 μM. After 24 h incubation, treatment media are discarded and Luciferase detection reagent is added. Light emission from each assay well is quantified using a plate-reading luminometer.

[4] = system: CRABP2 (cellular retinoic acid binding protein-II) gene expression; experiment: CRABP2 gene expression in human skin explants (qPCR); format: cell-based; settings: 48 h; for CRABP2 mRNA expression in skin explant: topical; for CRABP2 gene expression in human skin explants (in words): applied topically, 10 μM and 100 μM
Protocol: as §2, §1

[5] = 10^−4M in vehicle (PG70/EtOH30)
[6] = 10^−5M in vehicle (PG70/EtOH30)
[7] = agonist mode, read-out: average EC50, dose response activity on RARγ in agonist mode
[8] = positive allosteric modulator mode, read-out: average EC50, dose response activity on RARγ in positive allosteric modulator mode

| IL-8 mRNA expression in skin explant [1, 5] [% control] | IL-8 mRNA expression in skin explant [1, 6] [% control] | IL-8 mRNA expression as compared to Neutrogena RWR (in words) [1] | EC50 (RARγ receptors; [7]) [nM] | EC50 (RARγ receptors; [8]) [nM] | HBEGF gene expression in human skin explants (in words) [2] | RARγ transactivation (in words) [3] | RARγ receptor transactivation values (ratio: RLU of tested material/RLU of control) ([3]; concentration 0.1 μM) | RARγ receptor transactivation values (ratio: RLU of tested material/RLU of control) ([3]; concentration 1 μM) | RARγ receptor transactivation values (ratio: RLU of tested material/RLU of control) ([3]; concentration 10 μM) | CRABP2 gene expression in human skin explants (in words) [4] | SMILES | HB-EGF gene expression in skin explant [2, 5] [%] | HB-EGF gene expression in skin explant [2, 6] [%] | CRABP2 mRNA expression in skin explant [4, 5] [% control] | CRABP2 mRNA expression in skin explant [4, 6] [% control] |
| --- | --- | --- | --- | --- | --- | --- | --- | --- | --- | --- | --- | --- | --- | --- | --- |
| 690 | 334 | lower | 7.1 ± 0.7 | 6.7 ± 2.7 | induced | showed RARγ transactivation | 5.5663 | 3.253 | 6.7229 | induced | C=C(c1ccc(C(=O)O)cc1)c1ccc2c(c1)C(C)(C)C(C)(C)C2(C)C [Compound 2, 4-(1-(1,1,2,2,3,3-hexamethyl-2,3-dihydro-1H-inden-5-yl)vinyl)benzoic acid] | 358 | 173 | 340 | 191 |
| 410 | 422 | lower | 0.0831 | 0.0301 | induced | showed RARγ transactivation | 10.6988 | 8.4578 | 6.506 | induced | CC(/C=C/C=C(\C)c1ccc2c(c1)C(C)(C)C(C)(C)C2(C)C)=C\C(=O)O [Compound 1, (2E,4E,6E)-7-(1,1,2,2,3,3-hexamethyl-2,3-dihydro-1H-inden-5-yl)-3-methylocta-2,4,6-trienoic acid] | 513 | 218 | 496 | 256 |
